From patent publication US20150157036A1, “Processed Cheese With Natural Antibacterial And Antimycotic Components And Method Of Manufacturing” (KRAFT FOODS GROUP BRANDS LLC, priority 2013, published 2015)
Where “and” joins values, the source holds several entries; their conditions need not be identical. Equal entries are not always repeated.

Experiments:
[1] = system: mold cocktail of Phoma spp., Geotrichum spp., Cladosporium spp., and Penicillium spp.; assay: Mold challenge study of processed cheese slices inoculated with a mold cocktail; type: cell-based
Protocol: In some approaches, the processed cheese includes an amount of natural antimycotic effective to prevent mold growth for at least about three months, in another aspect at least about four months, in another aspect at least about five months, in another aspect at least about six months, and in yet another aspect at least about seven months, when the processed cheese is stored at about 1 to about 10° C. The efficacy of the natamycin in the processed cheese product can be determined by conducting a mold challenge study, where samples of the processed cheese are inoculated with a known quantity of mold spores, such as 90 cfu/g or 500 cfu/g, and inspecting the samples for visible mold growth during storage at 40 to 45° F.
Natamycin (Natamax SF from Danisco) was incorporated into processed cheese (prior to the cooking step) at concentrations of 7 ppm and 15 ppm. The processed cheese was then submitted to a mold challenge study. The processed cheese was inoculated with a mold cocktail (spores in liquid media) of Phoma spp., Geotrichum spp., Cladosporium spp., and Penicillium spp. (which represent common types of mold) at 90 spores per 19 gram slice. The samples are inoculated by spreading the cocktail on top of cheese slices. A control was not inoculated. […] The detectable level of natamycin was determined by HPLC. […]

[2] = Detectable level of natamycin in processed cheese by HPLC during storage; type: physicochemical; conditions: for detectable natamycin concentration in the product: by six months, stored at 45° F.; for natamycin in processed cheese, on average: three days after producing the processed cheese, four samples
Protocol: Natamycin (Natamax SF from Danisco) was incorporated into processed cheese (prior to the cooking step) at 15 ppm. Cultured dairy component containing nisin was incorporated into all products at 8 percent based on the total weight of the processed cheese. Samples of the processed cheese were inoculated at 100 cfu/g and 500 cfu/g. The detectable level of natamycin was determined by HPLC.

mold = assay: Shelf life of processed cheese slices, visible mold during storage; type: cell-based; conditions: processed cheese slices containing about 4.8 ppm natamycin; stored at 45° F.; control without natamycin showed visible mold at three months
Description: Processed cheese slices were produced containing about 4.8 ppm natamycin (Natamax SF from Danisco).

[3] = average of samples, dosage level 15 ppm, storage at 45° F.
[4] = dosage level 15 ppm before cooking, 8 percent cultured dairy component containing nisin, storage at 45° F., HPLC, single samples

## C[C@@H]1C/C=C/C=C/C=C/C=C/[C@H](O[C@@H]2O[C@H](C)[C@@H](O)[C@H](N)[C@@H]2O)C[C@@H]2O[C@](O)(C[C@@H](O)C[C@H]3O[C@@H]3/C=C/C(=O)O1)C[C@H](O)[C@H]2C(=O)O [Natamycin, natamycin]
[1]; 10 ppm and 15 ppm natamycin plus 8 percent cultured dairy component containing nisin, inoculated with 500 cfu/g or 9,500 spores per slice
  shelf life relative to control: almost double that of control
[1]; processed cheese with 7 ppm or 15 ppm natamycin added before cooking, 90 spores per 19 gram slice, stored at 45° F.
  extension of shelf life versus control that lacked mold inhibitor: at least six months longer than a control
[2]; 7 ppm sample, HPLC
  detectable natamycin concentration in the product: 0.62 ppm
[2]; 15 ppm sample, HPLC
  detectable natamycin concentration in the product: 4.89 ppm
[2]; [3]
  Detected Natamycin Concentration (ppm) after Four Months, average: Average = 3.39 ppm
  Detected Natamycin Concentration (ppm) after One Week, average: Average = 4.68 ppm
  Detected Natamycin Concentration (ppm) after Two Months, average: Average = 5.93 ppm
[2]; [4]
  Detected Natamycin Concentration (ppm) after Four Months: 3.07 ppm and 3.39 ppm and 3.64 ppm and 2.97 ppm and 3.37 ppm and 3.28 ppm and 3.14 ppm
  Detected Natamycin Concentration (ppm) after One Week: 4.61 ppm and 4.63 ppm and 4.80 ppm
  Detected Natamycin Concentration (ppm) after Three Months: 6.87 ppm and 6.34 ppm and 7.46 ppm and 6.13 ppm and 6.84 ppm and 6.78 ppm and 7.36 ppm
  Detected Natamycin Concentration (ppm) after Two Months: 6.73 ppm and 4.62 ppm and 6.32 ppm and 5.34 ppm and 5.91 ppm and 6.81 ppm and 5.67 ppm
[2]; processed cheese with natamycin and cultured dairy component, HPLC
  change of the detectable quantity of natamycin during storage: increase in months 2 and 3 of storage and then decrease in month 4
[2]; starting with 10 ppm, 8 percent cultured dairy component containing nisin
  natamycin in processed cheese, on average: 2.8 ppm
[2]; starting with 15 ppm, 8 percent cultured dairy component containing nisin
  natamycin in processed cheese, on average: 4.9 ppm
mold
  visible mold at five months of shelf life: no visible mold
